Patent publication US11773127B2, “Compounds and methods for treating bacterial infections” (Washington University, priority 2017, dated 2023)
Read-outs that look alike come from different tables or passages of the source.

Key:
FmlHLD [1] = biological target: T1, FmlHLD (Escherichia coli, UniProt P77588); assay: biochemical; type: binding, E. coli; conditions: for IC50: IC50 (μM), Table 6, sulfonamides 3078-3090; for % Inhibition at [μM] [100]: compound at 100 μM
T1 construct: 6xHis (C); made in house; host or cells: E. coli C600, periplasm, pTRC99a
How it was run: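 Sialidase-treated bovine submaxillary mucin (ds-BSM) coated wells, BSA-blocked, then biotinylated FmlH^LD (20 μg/mL) with or without compound for 1 h at room temperature. Bound lectin detected by streptavidin-HRP/TMB, A450.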

FmlHLD [2] = biological target: T1, FmlHLD; assay: biochemical; type: binding, E. coli
Excerpt: Bio-layer interferometry (BLI) was used to quantitate the binding affinity of select galactosides to FmlH.
Thereafter, pins were dipped in PBS for 120 s and transferred to protein samples (varying concentration of FmlHLD or fixed concentration of FmlHLD with varying concentration of galactoside compounds) for association for 300-600 s.

[3] = read-out: % Inhibition at [μM] [100], compound at 100 μM, inhibition of FmlHLD binding to ds-BSM
[4] = read-out: PI100 (percent inhibition), galactoside at 100 μM, mean with standard error of the mean
[5] = Kd (μM), inhibitory constants, fixed FmlHLD, varying galactoside in solution, immobilized ser-TF
[6] = read-out: % Inhibition at [μM] [1], compound at 1 μM, inhibition of FmlHLD binding to ds-BSM
[7] = read-out: % Inhibition at [μM] [10], compound at 10 μM, inhibition of FmlHLD binding to ds-BSM
[8] = inhibition of FmlHLD binding to ds-BSM
[9] = soluble compound at 100 μM (0.1 mM)

T1 sequence (P77588 25-182): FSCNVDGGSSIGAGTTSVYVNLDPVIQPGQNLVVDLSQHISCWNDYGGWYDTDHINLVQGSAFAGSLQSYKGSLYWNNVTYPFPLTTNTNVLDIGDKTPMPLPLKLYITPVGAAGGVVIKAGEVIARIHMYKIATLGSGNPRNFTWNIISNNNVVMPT

In the case of `CC(=O)N[C@@H]1[C@@H](O)[C@@H](O)[C@@H](CO)O[C@H]1O` (stereo in doubt) [GalNAc, N-acetylgalactosamine, reference compound], the inhibition at 100 µM (FmlHLD [1]; [3]) is reported as 28.4%, the inhibition at 100 µM (FmlHLD [1]; [4]) is reported as 28.5 ± 5.2% and the “inhibition of FmlHLD binding to ds-BSM, in words” value (from here on “inhibition of FmlHLD binding”) (FmlHLD [1]; soluble compound at 1 mM) is reported as “capable of inhibiting FmlHLD”. For the same molecule, the Kd (FmlHLD [2]; [5]) was 189 ± 22.9 µM.
Work on `O=[N+]([O-])c1ccccc1O[C@@H]1O[C@H](CO)[C@H](O)[C@H](O)[C@H]1O` [4β (ONPG), reference compound] yielded a Kd (FmlHLD [2]; [5]) of 10.6 ± 4.6 µM.
`OC[C@H]1O[C@@H](Oc2cc3c(O)cc(O)cc3[o+]c2-c2ccc(O)c(O)c2)[C@H](O)[C@@H](O)[C@H]1O` [CG, reference compound] gave an inhibition at 100 µM (FmlHLD [1]; [3]) of 28.8% and a Kd (FmlHLD [2]; Kd) of 212 µM.
For `CC(=O)N[C@H]1[C@H](Oc2ccccc2[N+](=O)[O-])O[C@H](CO)[C@H](O)[C@@H]1O` [Compound 4β-NAc], the “PI10 (percent inhibition)” value (FmlHLD [1]; galactoside at 10 μM, mean with standard error of the mean, 10 µM) was 87.2 ± 1.7%, the inhibition at 1 µM (FmlHLD [1]; read-out: PI1 (percent inhibition), galactoside at 1 μM, mean with standard error of the mean) was 28.6 ± 4.5% and the inhibition at 10 µM (FmlHLD [1]; read-out: PI10 (percent inhibition), galactoside at 10 μM, mean with standard error of the mean) was 87%. The inhibition at 100 µM (FmlHLD [1]; [4]) was 99.4 ± 1.3% and the Kd (FmlHLD [2]; [5]) was 2.3 µM.
`CC(=O)N[C@H]1[C@H](Oc2cccc([N+](=O)[O-])c2-c2cccc(NS(C)(=O)=O)c2)O[C@H](CO)[C@H](O)[C@@H]1O` [Compound 3078, N-((2S,3R,4R,5R,6R)-4,5-dihydroxy-6-(hydroxymethyl)-2-((3′-(methylsulfonamido)-6-nitro-[1,1′-biphenyl]-2-yl)oxy)tetrahydro-2H-pyran-3-yl)acetamide] gave an IC50 (FmlHLD [1]) of 0.11 µM.
Molecule `CC(=O)N[C@@H]1[C@H](Oc2cccc(C(=O)OCc3ccccc3)c2-c2cccc(NS(C)(=O)=O)c2)OC(CO)[C@H](O)[C@@H]1O` (stereo partly drawn) [Compound 3081, Benzyl 6-(((2S,3S,4R,5R)-3-acetamido-4,5-dihydroxy-6-(hydroxymethyl)tetrahydro-2H-pyran-2-yl)oxy)-3′-(methylsulfonamido)-[1,1′-biphenyl]-2-carboxylate] has an IC50 (FmlHLD [1]) of 0.18 µM.
In the case of `CC(=O)N[C@@H]1[C@H](Oc2cccc(C(=O)O)c2-c2cccc(NS(C)(=O)=O)c2)OC(CO)[C@H](O)[C@@H]1O` (stereo partly drawn) [Compound 3082, 6-(((2S,3S,4R,5R)-3-acetamido-4,5-dihydroxy-6-(hydroxymethyl)tetrahydro-2H-pyran-2-yl)oxy)-3′-(methylsulfonamido)-[1,1′-biphenyl]-2-carboxylic acid], the IC50 (FmlHLD [1]) is reported as 0.13 µM.
For `COc1cccc(O[C@@H]2OC(CO)[C@H](O)[C@H](O)[C@@H]2NC(C)=O)c1-c1cccc(NS(C)(=O)=O)c1` (stereo partly drawn) [Compound 3083, N-((2S,3S,4R,5R)-4,5-dihydroxy-6-(hydroxymethyl)-2-((6-methoxy-3′-(methylsulfonamido)-[1,1′-biphenyl]-2-yl)oxy)tetrahydro-2H-pyran-3-yl)acetamide], the IC50 (FmlHLD [1]) was 0.15 µM.
`CC(=O)N[C@H]1[C@H](Oc2ccc3ccccc3c2-c2cccc(NS(C)(=O)=O)c2)O[C@H](CO)[C@H](O)[C@@H]1O` [Compound 3085, N-((2S,3R,4R,5R,6R)-4,5-dihydroxy-6-(hydroxymethyl)-2-((1-(3-(methylsulfonamido)phenyl)naphthalen-2-yl)oxy)tetrahydro-2H-pyran-3-yl)acetamide] was tested, and the IC50 (FmlHLD [1]) was 0.18 µM.
For `CC(=O)N[C@@H]1[C@H](Oc2cccc(C)c2-c2cccc(NS(=O)(=O)N(C)C)c2)OC(CO)[C@H](O)[C@@H]1O` (stereo partly drawn) [Compound 3087, N-((2S,3S,4R,5R)-2-((3′-((N,N-dimethylsulfamoyl)amino)-6-methyl-[1,1′-biphenyl]-2-yl)oxy)-4,5-dihydroxy-6-(hydroxymethyl)tetrahydro-2H-pyran-3-yl)acetamide], the “inhibitory potency against FmlH, in words” value (FmlHLD [1]; ELISA-based competition assay) was “retain the same activity as the methyl sulfonamides” and the IC50 (FmlHLD [1]) was 0.13 µM.
`Cc1cccc(O[C@@H]2O[C@H](CO)[C@H](O)[C@H](O)[C@H]2NS(C)(=O)=O)c1-c1cccc(NS(C)(=O)=O)c1` [Compound 3089, N-((2S,3R,4R,5R,6R)-4,5-dihydroxy-6-(hydroxymethyl)-2-((6-methyl-3′-(methylsulfonamido)-[1,1′-biphenyl]-2-yl)oxy)tetrahydro-2H-pyran-3-yl)methanesulfonamide] showed an IC50 (FmlHLD [1]) of 3.5 µM.
Work on `Cc1c(C)c2ccc(O[C@@H]3O[C@H](CO)[C@H](O)[C@H](O)[C@H]3O)cc2oc1=O` [Compound D715-0293, reference compound] yielded an inhibition at 1 µM (FmlHLD [1]; [6]) of 10.2%, an inhibition at 10 µM (FmlHLD [1]; [7]) of 19.8% and an inhibition at 100 µM (FmlHLD [1]; [3]) of 89.2%.
For `CC1=CC(=O)Cc2c1cc(F)c(O[C@@H]1O[C@H](CO)[C@H](O)[C@H](O)[C@H]1O)c2F` [DiF-MUG, reference compound], the inhibition at 10 µM (FmlHLD [1]; [7]) was 0.85% and the inhibition at 100 µM (FmlHLD [1]; [3]) was 49.7%.
For `OC[C@H]1O[C@@H](Oc2cccc3ccncc23)[C@H](O)[C@@H](O)[C@H]1O` [EXW020a], the inhibition at 100 µM (FmlHLD [1]; [3]) was 15.2%.
In the case of `CC(=O)N[C@H]1[C@@H](Oc2ccc([N+](=O)[O-])cc2)O[C@H](CO)[C@H](O)[C@@H]1O[C@@H]1O[C@H](CO)[C@H](O)[C@H](O)[C@H]1O` [Gal-b1-3-PNPGalNAc, reference compound], the “% Inhibition at [μM] [100]” value (FmlHLD [1]; [8]) is reported as 15.28%.
With `CC(=O)N[C@H]1[C@H](Oc2ccc([N+](=O)[O-])cc2)O[C@H](CO)[C@@H](O)[C@@H]1O[C@@H]1O[C@H](CO)[C@H](O)[C@H](O)[C@H]1O` [Gal-b1-3-PNPGlcNAc, reference compound] the “% Inhibition at [μM] [100]” value (FmlHLD [1]; [8]) was −3.60%.
`O=[N+]([O-])c1ccc(O[C@@H]2O[C@H](CO[C@@H]3O[C@H](CO)[C@H](O)[C@H](O)[C@H]3O)[C@H](O)[C@H](O)[C@H]2O)cc1` [Gal-b1-6-PNPG, reference compound] was tested, and the “% Inhibition at [μM] [100]” value (FmlHLD [1]; [8]) was 19.41%.
With `CC(=O)N[C@@H]1[C@@H](O[C@@H]2O[C@H](CO)[C@H](O)[C@H](O)[C@H]2O)[C@H](O)[C@@H](CO)O[C@@H]1O` [Gal-β1-GalNAc, reference compound] the Kd (FmlHLD [2]; [5]) was 248 ± 20.3 µM.
With `CC(C)S[C@@H]1O[C@H](CO)[C@H](O)[C@H](O)[C@H]1O` [IPTG, isopropyl β-thiogalactoside, reference compound] the inhibition at 100 µM (FmlHLD [1]; [3]) was 23.7% and the “inhibition of FmlHLD binding” value (FmlHLD [1]; [9]) was “minor inhibitory activity”.
With `Cc1cc(=O)oc2cc(O[C@@H]3O[C@H](CO)[C@H](O)[C@H](O)[C@H]3O)ccc12` [MUG, reference compound] the inhibition at 1 µM (FmlHLD [1]; [6]) was 8.73%, the inhibition at 10 µM (FmlHLD [1]; [7]) was 19.7% and the inhibition at 100 µM (FmlHLD [1]; [3]) was 85.2%.
`O=c1c(O[C@@H]2O[C@H](CO)[C@H](O)[C@H](O)[C@H]2O)c(-c2cc(O)c(O)c(O)c2)oc2cc(O)cc(O)c12` [MyrG, reference compound] gave an inhibition at 100 µM (FmlHLD [1]; [3]) of 10.8%.
`O=[N+]([O-])c1ccccc1O[C@@H]1O[C@H](CO)[C@H](O)[C@H](O)[C@H]1O` [ONPG, o-nitrophenyl β-galactoside, reference compound] gave an inhibition at 1 µM (FmlHLD [1]; [6]) of 14.2%, an inhibition at 10 µM (FmlHLD [1]; [7]) of 31.1% and an inhibition at 100 µM (FmlHLD [1]; [3]) of 93%. The “inhibition of FmlHLD binding” value (FmlHLD [1]; [9]) was “more effectively than Gal, GalNAc, or TF”.
With `O=[N+]([O-])c1ccccc1O[C@@H]1O[C@H](COP(=O)(O)O)[C@H](O)[C@H](O)[C@H]1O` [ONPG-6P, reference compound] the “% Inhibition at [μM] [100]” value (FmlHLD [1]; [8]) was 1.31%.
With `CC(=O)N[C@H]1[C@H](Oc2ccccc2[N+](=O)[O-])O[C@H](CO)[C@H](O)[C@@H]1O` [ONPG-NAc] the inhibition at 1 µM (FmlHLD [1]; [6]) was 22.4%, the inhibition at 10 µM (FmlHLD [1]; [7]) was 87.2% and the inhibition at 100 µM (FmlHLD [1]; [3]) was 99.4%.
In the case of `O=C(O)C1OC(Oc2ccc([N+](=O)[O-])cc2)C(O)C(O)C1O` (stereo not shown) [PNP Galacturonide, reference compound], the “% Inhibition at [μM] [100]” value (FmlHLD [1]; [8]) is reported as −2.40%.
With `CC(=O)N[C@H]1[C@@H](Oc2ccc([N+](=O)[O-])cc2)O[C@H](CO)[C@H](O)[C@@H]1O` [PNP-aGalNAc, reference compound] the “% Inhibition at [μM] [10]” value (FmlHLD [1]; compound at 10 μM, inhibition of FmlHLD binding to ds-BSM) was 6.29% and the “% Inhibition at [μM] [100]” value (FmlHLD [1]; [8]) was 82.04%.
For `O=[N+]([O-])c1ccc(S[C@@H]2O[C@H](CO)[C@H](O)[C@H](O)[C@H]2O)cc1` [PNPTG, reference compound], the inhibition at 10 µM (FmlHLD [1]; [7]) was 17% and the inhibition at 100 µM (FmlHLD [1]; [3]) was 72.5%.
`OC[C@H]1O[C@@H](Oc2cc3c(O)cc(O)cc3[o+]c2-c2ccc(O)cc2)[C@H](O)[C@@H](O)[C@H]1O` [PelG, reference compound] showed an inhibition at 100 µM (FmlHLD [1]; [3]) of 0.74%.
`COc1cc(-c2[o+]c3cc(O)cc(O)c3cc2O[C@@H]2O[C@H](CO)[C@H](O)[C@H](O)[C@H]2O)ccc1O` [PeoG, reference compound] gave an inhibition at 100 µM (FmlHLD [1]; [3]) of 3.64%.
In the case of `OC[C@H]1O[C@@H](Oc2ccccc2)[C@H](O)[C@@H](O)[C@H]1O` [Phenyl Gal, reference compound], the inhibition at 10 µM (FmlHLD [1]; [7]) is reported as 15.5% and the inhibition at 100 µM (FmlHLD [1]; [3]) is reported as 76.9%.
Work on `O=c1ccc2nc3ccc(O[C@@H]4O[C@H](CO)[C@H](O)[C@H](O)[C@H]4O)cc3oc-2c1` [Resorufin Gal, reference compound] yielded an inhibition at 10 µM (FmlHLD [1]; [7]) of 24% and an inhibition at 100 µM (FmlHLD [1]; [3]) of 80.4%.
In the case of `OC[C@H]1O[C@@H](Oc2c[nH]c3cc(Cl)ccc23)[C@H](O)[C@@H](O)[C@H]1O` [Salmon Gal, reference compound], the inhibition at 100 µM (FmlHLD [1]; [3]) is reported as 41.2%.
For `O=[N+]([O-])c1ccc(O[C@@H]2O[C@H](CO)[C@H](O)[C@H](O)[C@H]2O)cc1` [p-Nitrophenyl Gal, reference compound], the inhibition at 10 µM (FmlHLD [1]; [7]) was 13.7% and the inhibition at 100 µM (FmlHLD [1]; [3]) was 78.1%.
